The assay deals with T1, Corticotropin-releasing factor receptor 1 (Homo sapiens, UniProt P34998).
T1 sequence (P34998 whole entry): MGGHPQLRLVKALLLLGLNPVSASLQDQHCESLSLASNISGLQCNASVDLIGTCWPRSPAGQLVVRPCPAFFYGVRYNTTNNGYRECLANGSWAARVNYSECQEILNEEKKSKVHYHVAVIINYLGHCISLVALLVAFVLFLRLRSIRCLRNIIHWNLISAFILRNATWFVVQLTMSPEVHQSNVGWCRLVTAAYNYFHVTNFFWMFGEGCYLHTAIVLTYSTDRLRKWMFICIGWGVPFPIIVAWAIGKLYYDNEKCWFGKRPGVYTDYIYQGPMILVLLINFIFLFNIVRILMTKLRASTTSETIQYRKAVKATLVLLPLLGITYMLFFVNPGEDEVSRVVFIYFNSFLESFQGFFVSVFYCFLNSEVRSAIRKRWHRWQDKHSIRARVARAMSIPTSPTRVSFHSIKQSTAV
The assay can be described thus: Binding Assay: A binding competition experiment with CRF was conducted by the SPA (GE Healthcare) method using a 96-well plate.

Data on one compound can be found in ChEMBL document CHEMBL3639059, “Pyrazolothiazole compound” (2013).

For the compound `CCCN(c1c(OC)nn2c(-c3c(OC)cc(Cl)cc3OC)csc12)C1CCOCC1`, the IC50 (in general, the midpoint of a concentration-inhibition curve) was found to be 74 nM.
